Measurements taken from a melting point compilation (Tetko et al.; mined from patent text by program, amines drawn as free bases though some values may be those of a salt).

| melting point [°C] | SMILES |
| --- | --- |
| 99 to 101 | O=C(C=Cc1ccccc1)Oc1ccc2ccccc2c1 |
| 146 to 148 | O=S(CCCn1cnc(-c2ccc(F)cc2)c1-c1ccncc1)c1ccccc1 (stereo not given) |
| 187 | CC(=O)n1ccc2cc(C(=O)NC(C)(C)C)ccc21 |
| 160 to 162 | O=S(=O)(CC(F)(F)F)c1nc2cc(F)ccc2[nH]1 |
| 156 to 157 | Nc1nnc(-c2ccc(CN3CCCCCC3)s2)s1 |
| 127 to 129 | CN(C(=NC#N)Nc1cccnc1)C(NC(=O)c1ccc(Cl)cc1)C(C)(C)C (stereo not given) |
| 247 | O=C(NC1CC1)c1cc(Nc2nc(Cl)nc3ccoc23)[nH]n1 |
| 194 to 195 | CC1CCC(Nc2c(C#N)c3ccccc3n2C)=CC1=O (stereo not given) |
| 208 | CCN(CC)C(=O)c1nn(-c2cccc(OC)c2)c(=O)c2c1c1ccc(Cl)cc1n2C |
| 129 to 130 | O=c1c2ccccc2oc2cccn12 |
| 47 to 48 | CCOC(=O)c1ccccc1C=C(C)C=CC=C(C)CCC=C(C)C |
| 61 to 65 | CCOC1SCN(c2ccc(Cl)c(Cl)c2)C1=O (stereo not given) |
| 218 to 221 | COc1ccc(Cn2nc(-c3ccc(C(=O)N4Cc5cccnc5Nc5ccccc54)c(Cl)c3)nc2C)cc1 |
| 120 to 121 | N#CCCNC(=O)c1cccc(-c2ccc3c(c2)C(Oc2cccc(C(F)(F)F)c2)CC3)c1 (stereo not given) |
| 142 to 146 | CC(=O)OCc1cn(C)c2ccccc2c1=O |
| 164 to 166 | N#CN1CCN2c3ccccc3Cc3ccccc3C2C1 (stereo not given) |
| 146 to 148 | C=Cc1ccc(NC(=O)OC)nc1 |
| 164 to 165 | CC(C)(C)[Si](C)(C)Oc1ccc(CCNc2ncnc3nccnc23)cc1 |
| 186 to 188 | Cc1nc(-c2ccc(OC(C)C)cc2)sc1C(=O)O |
| 142 to 144 | O=C1CCC(N2Cc3c(OCc4ccc(CN5CCN(c6ncccn6)CC5)cc4)cccc3C2=O)C(=O)N1 (stereo not given) |
| > 250 | CC(C)Cn1c(N)nc2c(N)nc3ccccc3c21 |
| 120 | CCN(CCCCNC(=O)c1ccc2ccccc2c1)C1CCc2ncsc2C1 (stereo not given) |
| < 50 | Clc1cc2ccccc2cn1 |
| 108 | COC(=O)C1OC(OC(=N)C(Cl)(Cl)Cl)C(OC(=O)C(C)C)C(OC(=O)C(C)C)C1OC(=O)C(C)C (stereo not given) |
| 273 | CC1(C)Cc2cc(O)c(Cl)c(Cl)c2C1=O |

| melting point [°C] | SMILES |
| --- | --- |
| 104 to 105 | N=C(N)NOCc1ccccc1 |
| 67 to 68 | CCC(C)c1ccccc1SC1=C(O)CC(CCc2ccccc2)(c2ccccc2)OC1=O (stereo not given) |
| 267 to 268 | O=C(Nc1cccc2c1C(=O)c1c-2n[nH]c1-c1ccc(C(=O)N2CCC[C@H]2CO)s1)NN1CCOCC1 |
| 51 to 52 | CCCCCCC/C=C\CCCCCCCC(=O)CCCNC(C)=O |
| 114 to 117 | CCOC(=O)CCCOc1nn2c(-c3ccc(OC)cc3)nnc2c2ccccc12 |
| 44 to 46 | CCC(CCCCc1ccccc1)(CC(=O)O)S(=O)(=O)c1ccc(OC)cc1 (stereo not given) |
| 128 to 130 | NC(=O)N(O)Cc1ccc(OCc2coc(-c3ccc(C(F)(F)F)cc3)n2)cc1 |
| 203 to 207 | COc1cc2ncnc(N3CCC(CN4C=CC(C)=NS4(=O)=O)CC3)c2cc1OC |
| 167 to 168 | N#Cc1nc(N)c(-c2ccccc2)nc1C#N |
| 130 to 132 | COc1ccc2c(Cc3c(Cl)cncc3Cl)nnc(Oc3ccccc3)c2c1 |
| 75 to 77 | OCCc1nccn1CCCCc1ccc(O)cc1 |
| 40 to 45 | C#Cc1ccc(C(=O)OC)nc1 |
| 264 | COc1ccc(C(=O)Sc2ccc(C(=O)O)cc2)cc1C12CC3CC(CC(C3)C1)C2 |
| 162 to 164 | N#Cc1cc(Br)c(O)c([N+](=O)[O-])c1 |
| 213 to 216 | O=c1[nH]c2ccccc2n1-c1ccc(Cl)cc1Cl |
| 133 to 140 | Cc1cccc(-c2ccc3c(c2)CC[C@H]2N(C)C(=O)CC[C@]32C)c1C |
| 294 | Cc1ccc(OC2CCN(C(=O)C(=O)Nc3ccc4[nH]c(=O)[nH]c4c3)CC2)cc1 |
| 209 to 215 | CC1(C)CC(=O)Nc2cc3nc(-c4ccc(OS(C)(=O)=O)cc4)[nH]c3cc21 |
| 285 to 287 | COc1ccc(-c2[nH]c3cn[nH]c(=O)c3c2Cl)cc1OC1CCC1 |
| 233 to 234 | CCc1nc2c(N)nc3ccccc3c2n1CC(C)C |
| 73 to 74 | CSCC(=O)Nc1cc(SCC(C)C)ccc1[N+](=O)[O-] |
| 231 to 232 | CC(C)(C)c1ncc(Nc2ncc(-c3ccc4ccncc4c3)c3ccccc23)cn1 |
| 153 to 154 | CCC[C@H](N[C@@H](C)C(=O)O)C(=O)OCC |
| 192 to 193 | COc1ccc2c3c([nH]c2c1)C(=O)C(CC1CCN(C(=O)OC(C)(C)C)CC1)C3 (stereo not given) |
| 187 to 189 | Cc1cc(CNC(=O)c2nc3n(c(=O)c2O)CCN3C)ccc1F |

| melting point [°C] | SMILES |
| --- | --- |
| 212 to 213 | CNC(=O)c1cnc(-c2ccccc2)c(-c2ccc(=O)n(C(C)C)n2)c1 |
| 74 to 75 | C=CCOc1ccc(C(=O)C=Cc2cc(OC)c(CCCC)c(OC)c2)cc1 |
| 122 to 125 | CC(C)[C@H](NC(=O)OCc1ccccc1)C(=O)N[C@@H](Cc1ccccc1)C(=O)CSCc1ccco1 |
| 126 | CC(C)(C)[Si](OCC1OC(n2ccc(N)nc2=S)C(O)(CC[Si](C)(C)C)C1O)(c1ccccc1)c1ccccc1 (stereo not given) |
| 153 to 155 | CC(C)CC(=O)O[C@H]1C[C@H](O)C=C2C=C[C@H](C)[C@H](CC[C@@H]3C[C@@H](O)CC(=O)O3)[C@H]21 |
| 125 | CC(C)(Oc1ccc(Oc2ccc(OC(C)(C)C(=O)O)cc2)cc1)C(=O)O |
| 93 to 95 | O=[N+]([O-])c1cc(NCCO)ccc1NCC(F)(F)F |
| 163 to 165 | COc1cc(-c2csnc2C)cc2oc(=O)c(C)c(C)c12 |
| 225 to 227 | CC1(C)CN=C2C(c3ccccc3)=[N+]([O-])c3cc(C(F)(F)F)ccc3N2C1 |
| 109 to 110 | Cc1cc(Br)cnc1CCCn1nnc2cc(Cc3cccnc3)cnc21 |
| 118 to 119 | Cc1cc(C)cc(Sc2c(C(C)C)nc(C=NN)n2C)c1 |
| 37.5 to 39 | CCC1(C(=O)C(=O)NC(C)(C)C)CC1 |
| 105 to 107 | COc1ccc(CN2CCCc3cc(O)c(OC)cc3C2)cc1 |
| 164 to 169 | CCCCCCCCCCCCCCOc1ccc(NC(=O)Nc2cccc(CBr)c2)cc1 |
| 208 | O=C1CN(C(=O)c2ccccc2)c2ccccc2N1 |
| 97 to 99 | CCCc1nc(N)cc(OC)n1 |
| 199 to 201 | CC(=O)NCc1ccc(Nc2nccc(-c3sc(-c4cccnc4)nc3C)n2)cc1 |
| 205 to 207 | O=C(CCN1CCOCC1)NCc1ccc2c(c1)Cc1c(-c3ccsc3)n[nH]c1-2 |
| 270 to 272 | Cc1cc2c(-c3cccc(C(=O)O)c3)c(CC(=O)Nc3ccc(Cl)cc3C(F)(F)F)c(=O)oc2cc1Cl |
| 221 to 227 | CS(=O)(=O)N(N)C(=O)c1cc([N+](=O)[O-])c(C(F)(F)F)cc1N |
| 112 to 113 | O=C1CCCc2cc(Sc3ccccc3)cc(F)c21 |
| 213 to 215 | O=C(O)COc1cccc(C=Cc2nc(-c3ccccc3)c(-c3ccccc3)o2)c1 |
| < 20 | COc1c2c(nc3ccccc13)CCN(Cc1ccccc1)CC2 |
| 158 to 160 | O=C1c2ccccc2C(=O)N1OCn1ccnc1 |
| 95 to 96 | CCOC(=O)c1ccn2c(=O)c(CC)c(C)nc2c1 |

| melting point [°C] | SMILES |
| --- | --- |
| 67 to 68 | CN(Cc1ccccc1)C1(C#N)CCN(Cc2ccccc2)CC1 |
| 110 | COc1cccc2c1SCCC2=O |
| 165 to 166 | CCC(CC)Nc1cc(C)nc(Cl)c1N |
| 78 to 79 | N#Cc1ccc(C2CCN(Cc3ccccc3)C2)cc1 (stereo not given) |
| 78 to 82 | CCN(CC)CCOC(=O)N1CCC(NC(=O)c2ccccc2)CC1 |
| 86.4 | COC(CNC(=O)CCN1C(=O)N(C)C(=O)C1(C)C)OC |
| 206 to 207 | O=C(N[C@H](Cc1ccc(Cl)c(OC(F)(F)C(F)F)c1)[C@@H](O)c1ccc(F)cc1)c1ccc(F)c2ccccc12 (racemic) |
| 124 to 128 | Cc1c(C)c2c(c(C)c1O)CC[C@@](C)(CO)O2 |
| 113 to 114 | O=C(NCCc1cccs1)C12CC3CC(CC1C3)C2 |
| 120 to 122 | Cc1ccc2c(c1)CC(=S)N2 |
| 190 to 193 | CCOC(=O)c1[nH]c2ccc(C)cc2c(=O)c1C |
| 305 | Brc1ccc(C#Cc2c3ccccc3c(C#Cc3ccc(Br)cc3)c3ccccc23)cc1 |
| 56 to 58 | COc1cc(CO)c(N)c(OC)c1OC |
| 148 to 149 | O=C(O)CCCc1ccc(-c2ccccc2Br)cc1 |
| 159 to 161 | Nc1cc(CO)cc(S(N)(=O)=O)c1Cc1ccccc1 |
| 93 to 94 | CNc1ccc(OC)cc1[N+](=O)[O-] |
| 78.7 to 79.2 | OCc1ncccc1OCc1ccccc1 |
| 62 to 63 | FC(F)(F)C(F)(F)Cc1ccc(CBr)cc1 |
| 198 to 200 | O=C(O)c1cccc(OCc2ccccc2)c1[N+](=O)[O-] |
| 216 | CCCC1=C(C#N)C(c2ccccc2[N+](=O)[O-])c2c[nH]nc2N1 (stereo not given) |
| 203 to 204 | C[Si](C)(C)CCc1nnc(N)nc1N |
| 82 | CCc1cc(CCCc2ccc(CO)c(CO)c2)ccc1O |
| 102 to 112 | CC(=O)OC(C)OC(=O)N1c2ccccc2Sc2cc(O)c3ccccc3c21 (stereo not given) |
| 167 to 168 | COc1cc(C(C)C)c(Oc2c(N)nc(N)nc2C2COC(C)(C)OC2)cc1I |
| 150 to 152 | CCOC(=O)c1coc(-c2ccc(Cn3cnc4ccccc43)cc2)n1 |

| SMILES | melting point [°C] |
| --- | --- |
| CC(C)NCC(O)COc1cccnc1 (stereo not given) | 84 to 87 |
| CCN(CC)C(=O)c1ccc(C(=C2CCNCC2)c2cccc3ccccc23)cc1 | 80 to 85 |
| O=C(O)c1cccc(CN2CCC(c3cn(Cc4cccs4)c4ccccc34)CC2)c1 | 228 to 229 |
| CN(C)C(=O)Oc1ccc2nc(S(N)(=O)=O)sc2c1 | 208 to 209 |
| CS(=O)(=O)C(Cl)(Cl)C(=O)c1ccccc1Cl | 81 to 82 |
